The results in this text go back to article PMC7897990, “TriTOX: A novel Trichomonas vaginalis assay platform for high-throughput screening of compound libraries” (International Journal for Parasitology: Drugs and Drug …, 2021).

Like-named read-outs stand apart in the source and are kept apart here.

Data set [1] deals with Trichomonas vaginalis G3 trophozoites. The settings on record: parasite screen at 1 µg/mL; for T.vaginalis_%inb_Rep1: replicate 1; for T.vaginalis_%inb_Rep2: replicate 2; for T.vaginalis_Absorbance_Rep1: replicate 1, raw absorbance; for T.vaginalis_Absorbance_Rep2: replicate 2, raw absorbance.
Data set [2] relates to nontumorigenic neonatal foreskin fibroblast (NFF) cell line. The conditions noted are these: NFF_NS1 screen at 5 µg/mL.

With `Cc1cc(O)c(C=O)c2c1C(=O)Oc1c(CO)c(O)c3c(c1O2)C(O)OC3=O` (stereo not shown) [BIA-S1741], in data set [1], the T.vaginalis_%inb_Rep1 worked out at 17.25% and the T.vaginalis_%inb_Rep2 amounted to 7.43%. Also, in data set [2] (NFF cells), the NFF_Activity result was “I (otherwise these were reported as inactive (I))”.
Consider `CC1(C)C=Cc2c(ccc3ccc(=O)oc23)O1` [BIA-S1776], for which, in data set [1], the T.vaginalis_%inb_Rep1 came out at 12.88% and the T.vaginalis_%inb_Rep2 came to 13.28%. Also, the NFF_Activity entry in data set [2] (NFF cells) is “I (otherwise these were reported as inactive (I))”.
With `CSC[S@@+]([O-])CC(CO)NC(=O)/C=C/c1c(C)[nH]c(=O)[nH]c1=O` (stereo partly shown) [BIA-S1798], in data set [1], the T.vaginalis_%inb_Rep1 stood at 68.56% and the T.vaginalis_%inb_Rep2 came out at 88.33%. For the same compound, the NFF_Activity entry in data set [2] (NFF cells) is listed as “A (active (A) compounds having >25% inhibitory activity)”.
Taken in the same sequence, the figures for `O=C1C=C2C=C[C@@H]3C[C@@]2(O1)[C@H]1CCCCN31` [BIA-S1947] were 7.81%, 10.30% and “I (otherwise these were reported as inactive (I))”.
On to `CC(=O)Nc1c2sscc-2n(C)c1=O` [BIA-T1138], for which, in data set [1], the T.vaginalis_%inb_Rep1 is recorded as 100.00% and the T.vaginalis_%inb_Rep2 came to 97.56%. In addition, the NFF_Activity entry in data set [2] (NFF cells) was “A (active (A) compounds having >25% inhibitory activity)”.
Taken in the same sequence, the figures for `COc1cc(-c2ccc(O)cc2)c(OC)c(O)c1-c1ccc(O)cc1` [BIA-T1200] were 9.75%, 14.63% and “I (otherwise these were reported as inactive (I))”.
The like results for `CC[C@H](C)[C@@H]1NC(=O)C(C(C)=O)=C1O` [BIA-T1277] were, in that order, 8.60%, 14.81% and “I (otherwise these were reported as inactive (I))”.
Taken in the same sequence, the figures for `CC[C@H]1C[C@@H]2CC[C@@H](O2)[C@@H](C)C(=O)O[C@H](CC)C[C@H]2CC[C@H](O2)[C@H](C)C(=O)O[C@@H](CC)C[C@@H]2CC[C@@H](O2)[C@@H](C)C(=O)O[C@H](CC)C[C@H]2CC[C@H](O2)[C@H](C)C(=O)O1` [BIA-T1287] were 8.97%, 15.05% and “I (otherwise these were reported as inactive (I))”.
Take `CCC1OC(=O)C(C)C(=O)C(C)C(OC2OC(C)CC(N(C)C)C2O)C(C)(OC)CC(C)C(=O)C(C)C2N(CCCCn3cnc(-c4cccnc4)c3)C(=O)OC12C` (stereo not shown) [BIA-T1316]: in data set [1], the T.vaginalis_%inb_Rep1 is 0.94% and the T.vaginalis_%inb_Rep2 was 5.97%. In addition, the NFF_Activity entry in data set [2] (NFF cells) was “I (otherwise these were reported as inactive (I))”.
Taken in the same sequence, the figures for `CCCCCCCCCCC[C@@H](C[C@@H]1OC(=O)[C@H]1CCCCCC)OC(=O)[C@H](CC(C)C)NC=O` [BIA-T1320] were 10.91%, 19.44% and “I (otherwise these were reported as inactive (I))”.
Taken in the same sequence, the figures for `CO[C@H]1C[C@@H]2CC[C@@H](C)[C@@](O)(O2)C(=O)C(=O)N2CCCC[C@H]2C(=O)O[C@H]([C@H](C)C[C@@H]2CC[C@@H](OC(=O)C(C)(CO)CO)[C@H](OC)C2)CC(=O)[C@H](C)/C=C(\C)[C@@H](O)[C@@H](OC)C(=O)[C@H](C)C[C@H](C)/C=C/C=C/C=C/1C` [BIA-T1386] were 7.60%, 9.14% and “I (otherwise these were reported as inactive (I))”.
In data set [1], `C/C=C/C1=CC(=O)[C@@H](O)[C@@H]1O` [BIA-T1408] came in with a T.vaginalis_%inb_Rep1 of 6.82% and a T.vaginalis_%inb_Rep2 of 13.71%. In data set [2] (NFF cells), the NFF_Activity entry is “I (otherwise these were reported as inactive (I))”.
In the case of `C=C[C@@](C)(CCC=C(C)C)c1ccc2c3c(c[nH]c13)C[C@@H](CO)NC(=O)[C@H](C(C)C)N2C` [BIA-T1429], in data set [1], the T.vaginalis_%inb_Rep1 is given as 11.80% and the T.vaginalis_%inb_Rep2 turned out to be 16.64%. In addition, in data set [2] (NFF cells), the NFF_Activity entry is “I (otherwise these were reported as inactive (I))”.
For the compound `CS(=O)(=O)c1ccc([C@@H](O)[C@@H](CO)NC(=O)C(Cl)Cl)cc1` [BIA-T1486], in data set [1], the T.vaginalis_%inb_Rep1 amounted to 8.02% and the T.vaginalis_%inb_Rep2 was found to be 12.00%. In data set [2] (NFF cells), the NFF_Activity result was “I (otherwise these were reported as inactive (I))”.
The like results for `CCCCCCCCCCCCCC(=O)N[C@H]1CCOC1=O` [BIA-T1499] were, in that order, 6.40%, 13.16% and “I (otherwise these were reported as inactive (I))”.
Taken in the same sequence, the figures for `CC[C@@H](C)/C=C(C)/C=C/C(=O)c1c(O)c(-c2ccc(O)cc2)cn(O)c1=O` [BIA-T1566] were 8.55%, 14.93% and “I (otherwise these were reported as inactive (I))”.
The like results for `CC1=C(O)C(=O)[C@@H]2O[C@@H]2C1=O` [BIA-T1695] were, in that order, 9.91%, 12.25% and “A (active (A) compounds having >25% inhibitory activity)”.
For `CC1=C[C@H]2O[C@@H]3[C@H](O)[C@@H](O)[C@](C)([C@@]2(CO)C[C@@H]1O)[C@]31CO1` [BIA-T1932], in data set [1], the T.vaginalis_%inb_Rep1 was determined as 10.49% and the T.vaginalis_%inb_Rep2 came out at 13.71%. Besides, the NFF_Activity entry in data set [2] (NFF cells) was “I (otherwise these were reported as inactive (I))”.
Taken in the same sequence, the figures for `CC(=O)OC[C@]12C[C@H](OC(=O)CC(C)C)C(C)=C[C@H]1O[C@@H]1[C@H](O)[C@@H](OC(C)=O)[C@@]2(C)[C@]12CO2` [BIA-T1933] were 5.61%, 2.80% and “I (otherwise these were reported as inactive (I))”.
The like results for `CC1=C[C@H]2O[C@@H]3[C@H](O)[C@@H](O)[C@](C)([C@@]2(CO)C[C@@H]1OC(=O)CC(C)C)[C@]31CO1` [BIA-T1934] were, in that order, 10.70%, 12.37% and “I (otherwise these were reported as inactive (I))”.
In data set [1] (HTS), `CO[C@@H]1[C@@H](O)[C@@H](O)[C@@H](Oc2ccc3c(O)c(NC(=O)c4ccc(O)c(CC=C(C)C)c4)c(=O)oc3c2C)OC1(C)C` [Descarbamylnovobiocin] yielded a T.vaginalis_%inb_Rep1 of 9.75%, a T.vaginalis_Absorbance_Rep1 of 0.89, a T.vaginalis_%inb_Rep2 of 9.69% and a T.vaginalis_Absorbance_Rep2 of 0.754. Also, in data set [2], the NFF_Activity result is “I (otherwise these were reported as inactive (I))”.
The like results for `COc1c(O)c2c(=O)cc3c4c5c(cc(=O)c6c(O)c(OC)c(C[C@H](C)OC(C)=O)c(c(c1C[C@H](C)OC(C)=O)c24)c65)OCO3` [Diacetylcercosporin] were, in that order, 12.65%, 0.944, 14.53%, 0.821 and “A (active (A) compounds having >25% inhibitory activity)”.
Regarding `CCCCCCCCCCCC(=O)N[C@H]1CCOC1=O` [Dodecanoyl-L-homoserine lactone], in data set [1] (HTS), the T.vaginalis_%inb_Rep1 is listed as 9.75%, the T.vaginalis_Absorbance_Rep1 stood at 0.89, the T.vaginalis_%inb_Rep2 stood at 12.87% and the T.vaginalis_Absorbance_Rep2 is recorded as 0.798. The NFF_Activity result in data set [2] is “I (otherwise these were reported as inactive (I))”.
Taken in the same sequence, the figures for `COC12c3c(C)cc(O)c4c(=O)occ(c34)C(=O)C1C13COC(=O)c4c(O)cc(C)c(c41)C(=O)C2C3OC(C)=O` (stereo not shown) [Duclauxin] were 14.59%, 0.98, 17.79%, 0.866 and “I (otherwise these were reported as inactive (I))”.
In data set [1] (HTS), `CC[C@H](C)[C@H]1O[C@]2(C=C[C@@H]1C)C[C@@H]1C[C@@H](C/C=C(\C)[C@@H](O[C@H]3C[C@H](OC)[C@@H](O[C@H]4C[C@H](OC)[C@H](NC)[C@H](C)O4)[C@H](C)O3)[C@@H](C)/C=C/C=C3\CO[C@@H]4[C@H](O)C(C)=C[C@@H](C(=O)O1)[C@]34O)O2` [Emamectin B1a] registered a T.vaginalis_%inb_Rep1 of 15.19%, a T.vaginalis_Absorbance_Rep1 of 0.991, a T.vaginalis_%inb_Rep2 of 5.71% and a T.vaginalis_Absorbance_Rep2 of 0.699. The NFF_Activity result in data set [2] is listed as “A (active (A) compounds having >25% inhibitory activity)”.
Taken in the same sequence, the figures for `C/C=C/[C@@H]1C=C[C@@H]2C[C@H](C)CC[C@H]2[C@]1(C)/C(O)=C1/C(=O)[C@@H](CO)N(C)C1=O` [Epiequisetin] were 11.85%, 0.929, 4.34%, 0.68 and “I (otherwise these were reported as inactive (I))”.
The like results for `CC(=O)O[C@@H]1[C@@H]2O[C@H]2[C@@](C)(O)C(=O)[C@@H](C)C/C=C\[C@H]2[C@H](O)C(C)=C(C)[C@H]3[C@H](Cc4ccccc4)NC(=O)[C@@]123` [Epoxycytochalasin C, 19,20-] were, in that order, 12.33%, 0.938, 16.20%, 0.844 and “I (otherwise these were reported as inactive (I))”.
Taken in the same sequence, the figures for `C=C1[C@@H](C)[C@H]2[C@H](Cc3ccccc3)NC(=O)[C@]23[C@H](OC(C)=O)[C@@H]2O[C@H]2[C@@](C)(O)C(=O)[C@@H](C)C/C=C\[C@H]3[C@@H]1O` [Epoxycytochalasin D, 19,20-] were 12.71%, 0.945, 12.22%, 0.789 and “I (otherwise these were reported as inactive (I))”.
